In this test the target is T1, Ba/F3 cell EGFR Exon20 ins NPH (Homo sapiens, UniProt P00533, INS773NPH).
T1 construct: expressed in transfected cells; host or cells: Ba/F3
Kind of test: Ba/F3 cell proliferation suppression, EGFR Exon20 ins NPH. In kind it is cell-based. As to conditions: GI50 class; Ba/F3 cell line with NPH inserted at Exon20 of EGFR; 72 hours. The essentials:
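After 72 h compound exposure (twelve 3-fold steps, 0.3 nM–50 um final), live cells were measured by CellTiter-Glo luminescence and growth expressed as % of control to derive GI50. Cells were seeded at 3000–5000 per well a day earlier; Ba/F3 medium contained IL-3; three repeats.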
In the case of `C=CC(=O)Nc1cc(Nc2cc(N3OCC[C@@H]3c3cc(F)cc(Cl)c3)ncn2)c(OC)cc1N1CCC(N(C)C)CC1` [compound 627, N-(5-((6-((R)-3-(3-chloro-5-fluorophenyl)isoxazolidine-2-yl)pyrimidine-4-yl)amino)-2-(4-(dimethylamino)piperidine-1-yl)-4-methoxyphenyl) acrylamide], the “Ba/F3 (NPH) Activity” value was “A (GI50 < 50 nM)”.
In the case of `C=CC(=O)Nc1cc(Nc2cc(N3OCC[C@@H]3c3cc(F)cc(Cl)c3)ncn2)c(OC)cc1N1CCC(N2CCN(C3CC3)[C@@H](C)C2)CC1` [Example 157, N-(5-((6-((R)-3-(3-chloro-5-fluorophenyl)isoxazolidine-2-yl)pyrimidine-4-yl)amino)-2-(4-((S)-4-cyclopropyl-3-methylpiperazine-1-yl)piperidine-1-yl)-4-methoxyphenyl) acrylamide], the “Ba/F3 (NPH) Activity” value is given as “A (GI50 < 50 nM)”.
Take `C#Cc1cccc([C@H]2CCON2c2cc(Nc3cc(NC(=O)C=C)c(N4CCC(N5C[C@@H](C)O[C@@H](C)C5)CC4)cc3OC)ncn2)c1` [compound 651, N-(2-(4-((2S,6R)-2,6-dimethylmorpholino)piperidine-1-yl)-5-((6-((R)-3-(3-ethynylphenyl)isoxazolidine-2-yl)pyrimidine-4-yl)amino)-4-methoxyphenyl) acrylamide]: the “Ba/F3 (NPH) Activity” value is listed as “A (GI50 < 50 nM)”.
Turning to `C=CC(=O)Nc1cc(Nc2cc(N3OCC[C@@H]3c3ccc4ccccc4c3)ncn2)c(OC)cc1N1CCC(N2CCN(C(C)=O)CC2)CC1` [compound 556, N-(2-(4-(4-acetylpiperazine-1-yl)piperidine-1-yl)-4-methoxy-5-((6-((R)-3-(naphthalene-2-yl)isoxazolidine-2-yl)pyrimidine-4-yl)amino)phenyl) acrylamide], the “Ba/F3 (NPH) Activity” value was “B (50 nM ≤ GI50 < 500 nM)”.
In the case of `C=CC(=O)Nc1cc(Nc2cc(N3OCC[C@@H]3c3ccc(F)c(Cl)c3)ncn2)c(OC)cc1N1CCC(N(C)C)CC1` [compound 755, N-(5-((6-((R)-3-(3-chloro-4-fluorophenyl)isoxazolidine-2-yl)pyrimidine-4-yl)amino)-2-(4-(dimethylamino)piperidine-1-yl)-4-methoxyphenyl) acrylamide] it was “A (GI50 < 50 nM)”; in that of `C=CC(=O)Nc1cc(Nc2cc(N3OCC[C@@H]3Cc3ccccc3)ncn2)c(OC)cc1-n1ccnc1C` [compound 960, N-(5-((6-((S)-3-benzylisoxazolidine-2-yl)pyrimidine-4-yl)amino)-4-methoxy-2-(2-methyl-1H-imidazole-1-yl)phenyl)acrylamide], “B (50 nM ≤ GI50 < 500 nM)”; in that of `C=CC(=O)Nc1cc(Nc2cc(N3OCC[C@@H]3c3cccc(F)c3F)ncn2)c(OC)cc1N1CCC(N(C)C)CC1` [compound 926, N-(5-((6-((R)-3-(2,3-difluorophenyl)isoxazolidine-2-yl)pyrimidine-4-yl)amino)-2-(4-(dimethylamino)piperidine-1-yl)-4-methoxyphenyl) acrylamide], “A (GI50 < 50 nM)”.
To `C=CC(=O)Nc1cc(Nc2cc(N3OCC[C@@H]3Cc3cccc(F)c3)ncn2)c(OC)cc1N1CCC(N2CCOCC2)CC1` [compound 996, N-(5-((6-((S)-3-(3-fluorobenzyl)isoxazolidine-2-yl)pyrimidine-4-yl)amino)-4-methoxy-2-(4-morpholinopiperidine-1-yl)phenyl)acrylamide] belongs “A (GI50 < 50 nM)”; to `C=CC(=O)Nc1cc(Nc2cc(N3OCC[C@@H]3c3c(F)cccc3F)ncn2)c(OC)cc1N1CCC(N2CCN(C3CC3)[C@H](C)C2)CC1` [Example 137, N-(2-(4-((R)-4-cyclopropyl-3-methylpiperazine-1-yl)piperidine-1-yl)-5-((6-((R)-3-(2,6-difluorophenyl)isoxazolidine-2-yl)pyrimidine-4-yl)amino)-4-methoxyphenyl) acrylamide], “B (50 nM ≤ GI50 < 500 nM)”; to `C=CC(=O)Nc1cc(Nc2cc(N3OCC[C@@H]3c3cc(F)cc(F)c3)ncn2)c(OC)cc1N1CCN(C)[C@@H](C)C1` [compound 916, N-(5-((6-((R)-3-(3,5-difluorophenyl)isoxazolidine-2-yl)pyrimidine-4-yl)amino)-2-((S)-3,4-dimethylpiperazine-1-yl)-4-methoxyphenyl) acrylamide], “A (GI50 < 50 nM)”.
As to `C=CC(=O)Nc1cc(Nc2cc(N3OCC[C@@H]3c3ccc(F)c(F)c3F)ncn2)c(OC)cc1N1CCC(N2CCN(C3CC3)CC2)CC1` [Example 170, N-(2-(4-(4-cyclopropylpiperazine-1-yl)piperidine-1-yl)-4-methoxy-5-((6-((R)-3-(2,3,4-trifluorophenyl)isoxazolidine-2-yl)pyrimidine-4-yl)amino)phenyl)acrylamide], the “Ba/F3 (NPH) Activity” value is “A (GI50 < 50 nM)”.
In the case of `C=CC(=O)Nc1cc(Nc2cc(N3OCC[C@@H]3c3c(F)ccc(F)c3F)ncn2)c(OC)cc1N1CCC(N2C[C@H]3C[C@@H]2CO3)CC1` [compound 641, N-(2-(4-((1R,4R)-2-oxa-5-azabicyclo[2.2.1]heptane-5-yl)piperidine-1-yl)-4-methoxy-5-((6-((R)-3-(2,3,6-trifluorophenyl)isoxazolidine-2-yl)pyrimidine-4-yl)amino)phenyl)acrylamide] it was “A (GI50 < 50 nM)”; in that of `C=CC(=O)Nc1cc(Nc2cc(N3OCC[C@@H]3c3ccc(C)nc3)ncn2)c(OC)cc1N1C[C@H]2C[C@@H]1CN2CC` [Example 51, N-(2-((1R,4R)-5-ethyl-2,5-diazabicyclo [2.2.1]heptane-2-yl)-4-methoxy-5-((6-((R)-3-(6-methylpyridine-3-yl)isoxazolidine-2-yl)pyrimidine-4-yl)amino)phenyl) acrylamide], “C (500 nM ≤ GI50 < 5000 nM)”; in that of `C=CC(=O)Nc1cc(Nc2cc(N3OCC[C@@H]3c3ccc(Cl)cc3F)ncn2)c(OC)cc1N1CCC(N2CCC(N(C)C)CC2)CC1` [compound 410, N-(5-((6-((R)-3-(4-chloro-2-fluorophenyl)isoxazolidine-2-yl)pyrimidine-4-yl)amino)-2-(4-(dimethylamino)-[1,4'-bipiperidine]-1'-yl)-4-methoxyphenyl) acrylamide], “B (50 nM ≤ GI50 < 500 nM)”.
In the case of `C=CC(=O)Nc1cc(Nc2cc(N3OCC[C@@H]3c3cccc(C#N)c3)ncn2)c(OC)cc1N1CCC(N2CC[C@H](N(C)C)C2)CC1` [compound 435, N-(5-((6-((R)-3-(3-cyanophenyl)isoxazolidine-2-yl)pyrimidine-4-yl)amino)-2-(4-((S)-3-(dimethylamino)pyrolidine-1-yl)piperidine-1-yl)-4-methoxyphenyl) acrylamide] it was “B (50 nM ≤ GI50 < 500 nM)”; in that of `C=CC(=O)Nc1cc(Nc2cc(N3OCC[C@@H]3c3ccc(F)cc3F)ncn2)c(OC)cc1N1CCC(N2CCN(C3COC3)CC2)CC1` [Example 197, N-(5-((6-((R)-3-(2,4-difluorophenyl)isoxazolidine-2-yl)pyrimidine-4-yl)amino)-4-methoxy-2-(4-(4-(oxetane-3-yl)piperazine-1-yl)piperidine-1-yl)phenyl)acrylamide], “A (GI50 < 50 nM)”.
To `C=CC(=O)Nc1cc(Nc2cc(N3OCC[C@@H]3c3ccccc3)ncn2)c(OC)cc1N1CCN(C2COC2)CC1` [Example 18] belongs “A (GI50 < 50 nM)”; to `C=CC(=O)Nc1cc(Nc2cc(N3OCC[C@@H]3c3ccc(F)c(F)c3)ncn2)c(OC)cc1N1CCC(N2CCN(C(C)=O)CC2)CC1` [compound 544, N-(2-(4-(4-acetylpiperazine-1-yl)piperidine-1-yl)-5-((6-((R)-3-(3,4-difluorophenyl)isoxazolidine-2-yl)pyrimidine-4-yl)amino)-4-methoxyphenyl) acrylamide], “A (GI50 < 50 nM)”; to `C=CC(=O)Nc1cc(Nc2cc(N3OCC[C@@H]3c3ccc(C)nc3)ncn2)c(OC)cc1N1CCN(C2COC2)CC1` [Example 218, N-(4-methoxy-5-((6-((R)-3-(6-methylpyridine-3-yl)isoxazolidine-2-yl)pyrimidine-4-yl)amino)-2-(4-(oxetane-3-yl)piperazine-1-yl)phenyl)acrylamide], “B (50 nM ≤ GI50 < 500 nM)”.
In the case of `C=CC(=O)Nc1cc(Nc2cc(N3OCC[C@@H]3c3cc(F)cc(F)c3)ncn2)c(OC)cc1N1CCC(N2C[C@H]3CC[C@@H](C2)O3)CC1` [compound 759, N-(2-(4-((1R,5S)-8-oxa-3-azabicyclo [3.2.1]octan-3-yl)piperidine-1-yl)-5-((6-((R)-3-(3,5-difluorophenyl)isoxazolidine-2-yl)pyrimidine-4-yl)amino)-4-methoxyphenyl) acrylamide], the “Ba/F3 (NPH) Activity” value is on record as “B (50 nM ≤ GI50 < 500 nM)”.
To `C=CC(=O)Nc1cc(Nc2cc(N3OCC[C@@H]3c3cc(F)cc(F)c3)ncn2)c(OC)cc1N1C[C@@H]2C[C@H]1CO2` [compound 437, N-(2-((1S,4S)-2-oxa-5-azabicyclo [2.2.1]heptane-5-yl)-5-((6-((R)-3-(3,5-difluorophenyl)isoxazolidine-2-yl)pyrimidine-4-yl)amino)-4-methoxyphenyl) acrylamide] belongs “B (50 nM ≤ GI50 < 500 nM)”.
In the case of `C=CC(=O)Nc1cc(Nc2cc(N3OCC[C@@H]3c3cc(F)cc(Cl)c3)ncn2)c(OC)cc1N1CCC(N2CCN(C3CC3)CC2)CC1` [Example 163, N-(5-((6-((R)-3-(3-chloro-5-fluorophenyl)isoxazolidine-2-yl)pyrimidine-4-yl)amino)-2-(4-(4-cyclopropylpiperazine-1-yl)piperidine-1-yl)-4-methoxyphenyl) acrylamide] it was “A (GI50 < 50 nM)”; in that of `C=CC(=O)Nc1cc(Nc2cc(N3OCC[C@@H]3c3cccc(F)c3)ncn2)c(OC)cc1N1CCC(N(C)C)CC1` [Example 245, N-(2-(4-(dimethylamino)piperidine-1-yl)-5-((6-((R)-3-(3-fluorophenyl)isoxazolidine-2-yl)pyrimidine-4-yl)amino)-4-methoxyphenyl) acrylamide], “A (GI50 < 50 nM)”.

These data come from patent US12157730B2, “Heteroaryl derivative, method for producing same, and pharmaceutical composition comprising same as effective component” (VORONOI INC., priority 2019, dated 2024).
